Article PMC8086754 (Journal of medicinal chemistry, 2020)

Experiments:
human c-20S β5c = human c-20S β5c (Homo sapiens, UniProt P28074); assay: IC50 determination against human c-20S β5c; type: biochemical; details: relative to the parent compound of the sentence
human i-20S β5i [1] = biological target: T1, human i-20S β5i (Homo sapiens, UniProt P28062); details: previously reported; cited from earlier work
human i-20S β5i [2] = biological target: T1, human i-20S β5i; assay: IC50 determination against human i-20S β5i; type: biochemical; details: for inhibitory activity against β5i (SAR statement in words): relative to the parent compound of the sentence; for reduction in β5i activity: relative to PKS2086
[3] = test system: T cell proliferation in PBMCs; assay: Human PBMC proliferation assay; type: cell-based
cathepsin L = cathepsin L (Homo sapiens, UniProt P07711); assay: Protease counter-screen, cathepsin L; type: biochemical; details: compounds at 100, 33.3 and 11.1 μM
Chain of cathepsin L (P07711 114-333, species assumed): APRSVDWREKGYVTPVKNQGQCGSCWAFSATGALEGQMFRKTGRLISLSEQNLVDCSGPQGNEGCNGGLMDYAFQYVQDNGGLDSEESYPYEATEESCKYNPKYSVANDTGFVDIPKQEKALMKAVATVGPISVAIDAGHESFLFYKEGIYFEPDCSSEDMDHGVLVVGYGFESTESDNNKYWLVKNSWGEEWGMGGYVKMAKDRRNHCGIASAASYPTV

α-chymotrypsin = α-chymotrypsin (Bos taurus, UniProt P00766); assay: Protease counter-screen, α-chymotrypsin; type: biochemical; details: compounds at 100, 33.3 and 11.1 μM

Row | Structure (SMILES) | inhibitory activity against β5c (SAR statement in words) (human c-20S β5c) | inhibitory activity against β5i (SAR statement in words) (human i-20S β5i [2]) | other results
1 | COC[C@H](NC(=O)[C@H](CC(=O)N(C)C)NC(=O)CCc1ccccc1)C(=O)NCc1cccc2ccccc12 [Compound 2230BP] | significant loss of affinity |  | 
2 | CC(C)(C)ONC(=O)C[C@H](NC(=O)CCc1ccccc1)C(=O)N[C@@H](Cc1ccc(F)cc1)C(=O)NCc1cccc2ccccc12 [DPLG3] |  |  | β5i inhibitory potency (human i-20S β5i [1]): single-digit nanomolar potency
3 | COC[C@H](NC(=O)CCc1ccccc1)C(=O)N[C@@H](C)C(=O)NCc1cccc2ccccc12 [PKS2048] | abolished the inhibitory activities | abolished the inhibitory activities | 
4 | COC[C@H](NC(=O)[C@H](CC(=O)NOC(C)(C)C)NC(=O)CCc1ccccc1)C(=O)NCc1cccc(OC)c1 [PKS2160] |  |  | selectivity for β5i over β5c (statement in words) (human i-20S β5i [2]): abolished selectivity
5 | COC[C@H](NC(=O)[C@H](CC(=O)N1CCC1)NC(=O)CCc1ccccc1)C(=O)NCc1cccc2ccccc12 [PKS2209] | significant loss of affinity |  | 
6 | COC[C@H](NC(=O)[C@H](CC(=O)NOC(C)(C)C)NC(=O)CCc1ccccc1)C(=O)NCc1cccc(OC)c1OC [PKS2211] |  |  | selectivity for β5i over β5c (statement in words) (human i-20S β5i [2]): abolished selectivity
7 | COC[C@H](NC(=O)[C@H](CC(=O)NOC(C)(C)C)NC(=O)CCc1ccccc1)C(=O)NCc1cccc2cccnc12 [PKS2220] |  |  | reduction in β5i activity (human i-20S β5i [2]): 19 fold
8 | COC[C@H](NC(=O)[C@H](CC(=O)NOC(C)(C)C)NC(=O)CCc1ccccc1)C(=O)NCc1cccc2c1NCCC2 [PKS2226] |  |  | reduction in β5i activity (human i-20S β5i [2]): 114 fold
9 | C[C@H](NC(=O)[C@H](CC(=O)NC(C)(C)C)NC(=O)C(=O)c1c[nH]c2ccccc12)C(=O)NCc1cccc2ccccc12 [PKS3053] |  |  | activity against T cells relative to comparator ([3]; compared to PKS21210): two times more active; activity against T cells relative to comparator ([3]; compared to PKS21272): > 3 times; inhibition of cathepsin L (cathepsin L): weak inhibition; inhibition of α-chymotrypsin (α-chymotrypsin): weak inhibition
10 | NC(=O)C[C@H](NC(=O)CCc1ccccc1)C(=O)N[C@@H](Cc1ccc(F)cc1)C(=O)NCc1cccc2ccccc12 [PKS21083] | abolished the inhibitory activities |  | 
11 | C[C@H](NC(=O)[C@H](CCC(=O)NC(C)(C)C)NC(=O)CCc1ccccc1)C(=O)NCc1ccc(F)c2ccccc12 [PKS21210] |  | equipotent | 
12 | COC[C@H](NC(=O)[C@H](CCC(=O)NC(C)(C)C)NS(=O)(=O)c1ccc(C)cc1)C(=O)NCc1ccc(F)c2ccccc12 [PKS21265] |  |  | greater potency against T cells ([3]; compared to PKS21209): 2 fold; greater potency against T cells ([3]; compared to PKS21266): 5 fold

Now from value to compound, other results behind:

Row | inhibitory activity against β5c (SAR statement in words) (human c-20S β5c) | inhibitory activity against β5i (SAR statement in words) (human i-20S β5i [2]) | Structure (SMILES) | other results
13 | eliminated inhibitory activity | eliminated inhibitory activity | C[C@H](NC(=O)[C@H](CC(=O)NOC(C)(C)C)NC(=O)CCc1ccccc1)C(=O)NCc1ccnc2ccccc12 [PKS2068] | 
14 | eliminated inhibitory activity | eliminated inhibitory activity | C[C@H](NC(=O)[C@H](CC(=O)NOC(C)(C)C)NC(=O)CCc1ccccc1)C(=O)NCc1cccc2ncccc12 [PKS2073] | 
15 | increased activity against β5c | decreased potency against β5i | C[C@H](NC(=O)[C@H](CC(=O)NOC(C)(C)C)NC(=O)CCc1ccccc1)C(=O)NCc1cccc2[nH]ccc12 [PKS2083] | 
